Values of other authors in patent US20120245171A1, “BENZPYRAZOLE DERIVATIVES AS INHIBITORS OF PI3 KINASES” (GLAXO GROUP LIMITED, priority 2009, published 2012).
Read-outs that look alike come from different tables or passages of the source.

How the values were obtained:
Class I PI3-kinases = settings: each of the Class I PI3-kinases
CK2 protein kinase = CK2 protein kinase (Homo sapiens, UniProt P68400)
neutrophils [1] = settings: for superoxide release: neutrophils
neutrophils [2] = settings: treatment of neutrophils; Thelen et al. 1994

Sequence of CK2 protein kinase (P68400 whole entry): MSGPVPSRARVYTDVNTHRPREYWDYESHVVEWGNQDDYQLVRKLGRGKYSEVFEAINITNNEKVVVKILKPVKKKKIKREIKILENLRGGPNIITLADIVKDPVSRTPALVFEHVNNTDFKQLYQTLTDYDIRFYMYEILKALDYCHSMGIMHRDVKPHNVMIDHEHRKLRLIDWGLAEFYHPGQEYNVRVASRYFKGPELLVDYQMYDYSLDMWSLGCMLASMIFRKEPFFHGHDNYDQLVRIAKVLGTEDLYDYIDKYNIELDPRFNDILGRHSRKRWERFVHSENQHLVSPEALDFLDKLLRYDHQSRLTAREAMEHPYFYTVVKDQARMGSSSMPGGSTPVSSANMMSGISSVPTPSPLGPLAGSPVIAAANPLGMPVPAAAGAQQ

Row | IC50 (Class I PI3-kinases; Fruman et al. 1998, read-out: IC50 against each of these PI3-kinases) [µM] | IC50 (CK2 protein kinase) [µM] | SMILES | neutrophil migration (neutrophils [1]) | superoxide release (neutrophils [1]) | IC50 (Class I PI3-kinases; read-out: IC50 against each of the various Class I PI3-kinases) [µM] | fMLP-induced respiratory burst response (neutrophils [2])
1 | 15 to 20 | 5 to 10 | O=c1cc(N2CCOCC2)oc2c(-c3ccccc3)cccc12 [LY294002] | block | block | – | –
2 | – | – | COC[C@H]1OC(=O)c2coc3c2[C@@]1(C)C1=C(C3=O)[C@@H]2CCC(=O)[C@@]2(C)C[C@H]1OC(C)=O [wortmannin] | block | block | 0.001 to 0.01 | prevents
